# From US6749850B1, “Methods, compositions and kits for promoting recovery from damage to the central nervous system” (The General Hospital Corporation, priority 1999, dated 2004)
# Tests used:
# [1] = tested on: animal models of stroke; details: administered starting a day or more after stroke; cited from earlier work
# [2] = tested on: rat stroke model (focal cerebral infarction, middle cerebral artery electrocoagulation); assay: Example 1: sensorimotor behavioural tests after intracisternal treatment in rat stroke model; type: in vivo
# Method: In this example, fetal mouse neural stem cells (NSC) with or without basic fibroblast growth factor (bFGF) were administered intracisternally in a model of stroke recovery in rats. Male Sprague-Dawley rats, 300-350 grams, were handled for one week before surgery. They received an antibiotic, cefazolin sodium (40 mg/kg, i.p.), one day before stroke surgery. On the day of stroke surgery, animals were anesthetized by 2% halothane in a […]/oxygen mixture (2:1). Focal cerebral infarction, (stroke) was performed by proximal electrocoagulation of the middle cerebral artery, as described previously (Kawamata et al. (1999) Exp. Neurol. 158, 89-96; Tamura et al. (1981) J. Cereb. Blood Flow Metab. 1, 53-60). […] This technique produces a robust and reproducible infarct, or region of cell death, in the dorsolateral cerebral cortex and underlying striatum. Animals received another injection of cefazolin sodium (40 mg/kg, i.p.) immediately after surgery. They were then allowed to awaken from anesthesia.
# Twenty-four hours after stroke surgery, animals received an intracisternal injection of either: (1) vehicle, (2) NSC (10^6 cells), (3) bFGF (0.5 μg), or (4) NSC+bFGF. Intracisternal injection in 50 μl total volume was done through percutaneous injection into the cisterna magna under halothane anesthesia. This same procedure was repeated two days later so that animals received treatment on days 1 and 3 following stroke. Cyclosporin, an immunosuppressant, was administered at 10 mg/kg, i.p. for the duration of the experiment.
# The cerebral infarcts produced by the procedure cause sensorimotor dysfunction of the contralateral hindlimb and forelimb. For the next month following stroke, a number of neurological tests were done to assess sensorimotor function of the contralateral limbs. These tests include both the forelimb and hindlimb placing tests which test the animal's ability to place the limb on a tabletop in response to visual, tactile, proprioceptive, and whisker stimulation. […]
# [3] = tested on: rat stroke model (focal cerebral infarction, middle cerebral artery electrocoagulation); assay: Example 2: behavioural tests after intracerebral NSC and intracisternal bFGF in rat stroke model; type: in vivo; details: single administration one day after stroke
# Method: In a second experiment, NSC were injected directly into the brain into tissue surrounding focal strokes. bFGF was injected intracisternally, as before. In this experiment only one administration of NSC or bFGF was performed at one day after stroke.
# In this experiment, animals were handled for one week before surgery. In addition, they were trained on an additional test, the paw reaching test (see below) for 10 days before surgery. As before, they received cefazolin sodium (40 mg/kg, i.p.) before surgery. On the day of surgery, electrocoagulation of the proximal middle cerebral artery was done, as described previously (Kawamata et al. (1996) J. Cereb. Blood Flow Metab. 16, 542-547; Kawamata et al. (1997) Proc. Nat. Acad Sci. 94, 8179-8184; Kawamata et al. (1999) Exp. Neurol. 158, 89-96). They received another injection of cefazolin sodium, 40 mg/kg, i.p. after surgery.
# At one day after stroke, animals received either: (1) vehicle injection into periinfarct tissue, and vehicle injection into the cisterna magna, (2) NSC (10^6 cells) into periinfarct tissue and vehicle into the cisterna magna, (3) vehicle into periinfarct tissue and bFGF (0.5 μg) into the cisterna magna or (4) the combination NSC (10^6 cells) into periinfarct tissue and bFGF (0.5 μg) into the cisterna magna.
# These injections were done with a volume of 25 μl each under 2% halothane anesthesia. […]
# [4] = tested on: rat stroke model; details: BDNF administered conjointly with bone marrow cells; cited from earlier work
molecule,measurement,setting,value
"bFGF: basic fibroblast growth factor, a protein that supports survival and axonal outgrowth from neurons",recovery on tests of sensorimotor function of the impaired limbs,[1],recover more quickly and to a greater extent
same,recovery on limb placing tests (forelimb and hindlimb),"[2]; intracisternal on days 1 and 3 after stroke, NSC 10^6 cells, bFGF 0.5 μg, compared to placebo, FIGS. 1A-1B",significantly enhanced recovery compared to placebo
same,body swing test,"[2]; intracisternal on days 1 and 3 after stroke, compared to placebo, FIG. 1C",No differences
same,sensorimotor recovery of the contralateral limbs (summary),[2]; intracisternal starting one day after stroke,significantly enhance sensorimotor recovery
same,behavioral outcome overall (summary of tests),[3],improved behavioral outcome on some tests
same,recovery on forelimb and hindlimb placing tests,"[3]; NSC 10^6 cells periinfarct, bFGF 0.5 μg cisterna magna, compared to placebo, FIGS. 2A-2B",superiority in recovery
"BDNF: polypeptide growth factor, administered conjointly with bone marrow cells in a cited study (Chen et al. 2000) (protein, UniProt P23560 19-247, looked up) Neurotrophic factor BDNF …: APMKEANIRGQGGLAYPGVRTHGTLESVNGPKAGSRGLTSLADTFEHVIEELLDEDQKVRPNEENNKDADLYTSRVMLSSQVPLEPPLLFLLEEYKNYLDAANMSMRVRRHSDPARRGELSVCDSISEWVTAADKKTAVDMSGGTVTVLEKVPVSKGQLKQYFYETKCNPMGYTKEGCRGIDKRHWNSQCRTTQSYVRALTMDSKKRIGWRFIRIDTSCVCTLTIKRGR",recovery in a rat stroke model,[4],improve recovery
